Results published in patent publication US8481750B2 (Boehringer Ingelheim International GmbH, priority 2009, dated 2013).

What follows are compounds tested against LFA-1 binding to ICAM-1 (Homo sapiens, UniProt P05107+P20701) (assay: Inhibition of LFA-1 binding to ICAM-1 (LFA-1/Biotin-sICAM-1 AlphaScreen molecular assay)). Details: highest compound concentration 1 μM in 1% DMSO, 37° C., 90 minutes.
In short: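 AlphaScreen binding of purified LFA-1 to biotinylated sICAM-1 in DPBS with Ca/Mg, 2 mM MgCl2, 0.1% BSA, pH 7.1; compound top concentration 1 μM in 1% DMSO, 90 min at 37 °C. Detection with TS2/4 anti-LFA-1 acceptor beads (10 μg/mL final) and streptavidin donor beads (15 μg/mL final), room temperature in the dark.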

Chain of LFA-1 binding to ICAM-1 (P20701 26-1170): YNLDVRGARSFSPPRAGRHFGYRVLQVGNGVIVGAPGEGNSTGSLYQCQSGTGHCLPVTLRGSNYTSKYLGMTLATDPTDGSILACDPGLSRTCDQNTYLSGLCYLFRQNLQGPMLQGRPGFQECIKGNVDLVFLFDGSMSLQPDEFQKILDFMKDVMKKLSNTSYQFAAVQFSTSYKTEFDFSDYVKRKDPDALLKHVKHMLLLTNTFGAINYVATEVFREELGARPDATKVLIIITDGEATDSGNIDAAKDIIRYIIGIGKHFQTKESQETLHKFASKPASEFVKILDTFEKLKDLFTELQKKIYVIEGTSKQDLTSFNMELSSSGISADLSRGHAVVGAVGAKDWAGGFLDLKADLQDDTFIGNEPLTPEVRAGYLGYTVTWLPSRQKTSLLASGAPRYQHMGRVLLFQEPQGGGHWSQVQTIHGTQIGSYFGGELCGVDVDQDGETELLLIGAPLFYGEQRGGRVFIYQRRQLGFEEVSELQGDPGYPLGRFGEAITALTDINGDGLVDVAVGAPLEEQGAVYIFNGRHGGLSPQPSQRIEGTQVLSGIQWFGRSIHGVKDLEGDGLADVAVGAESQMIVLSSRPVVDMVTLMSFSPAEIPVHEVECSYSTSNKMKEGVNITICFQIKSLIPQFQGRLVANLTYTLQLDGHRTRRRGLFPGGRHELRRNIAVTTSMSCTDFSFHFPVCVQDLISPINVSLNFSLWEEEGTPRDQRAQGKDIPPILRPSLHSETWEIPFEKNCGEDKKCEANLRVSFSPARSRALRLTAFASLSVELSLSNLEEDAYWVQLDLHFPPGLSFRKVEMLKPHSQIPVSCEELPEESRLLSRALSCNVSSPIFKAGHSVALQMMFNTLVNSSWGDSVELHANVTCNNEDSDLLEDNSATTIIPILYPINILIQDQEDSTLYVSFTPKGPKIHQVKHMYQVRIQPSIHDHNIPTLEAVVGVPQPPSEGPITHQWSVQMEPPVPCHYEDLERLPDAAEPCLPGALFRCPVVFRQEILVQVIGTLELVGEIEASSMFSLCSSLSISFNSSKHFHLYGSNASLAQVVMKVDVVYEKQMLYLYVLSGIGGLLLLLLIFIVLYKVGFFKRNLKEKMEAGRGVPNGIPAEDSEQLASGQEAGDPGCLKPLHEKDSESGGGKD
Chain of LFA-1 binding to ICAM-1 (P05107 23-769): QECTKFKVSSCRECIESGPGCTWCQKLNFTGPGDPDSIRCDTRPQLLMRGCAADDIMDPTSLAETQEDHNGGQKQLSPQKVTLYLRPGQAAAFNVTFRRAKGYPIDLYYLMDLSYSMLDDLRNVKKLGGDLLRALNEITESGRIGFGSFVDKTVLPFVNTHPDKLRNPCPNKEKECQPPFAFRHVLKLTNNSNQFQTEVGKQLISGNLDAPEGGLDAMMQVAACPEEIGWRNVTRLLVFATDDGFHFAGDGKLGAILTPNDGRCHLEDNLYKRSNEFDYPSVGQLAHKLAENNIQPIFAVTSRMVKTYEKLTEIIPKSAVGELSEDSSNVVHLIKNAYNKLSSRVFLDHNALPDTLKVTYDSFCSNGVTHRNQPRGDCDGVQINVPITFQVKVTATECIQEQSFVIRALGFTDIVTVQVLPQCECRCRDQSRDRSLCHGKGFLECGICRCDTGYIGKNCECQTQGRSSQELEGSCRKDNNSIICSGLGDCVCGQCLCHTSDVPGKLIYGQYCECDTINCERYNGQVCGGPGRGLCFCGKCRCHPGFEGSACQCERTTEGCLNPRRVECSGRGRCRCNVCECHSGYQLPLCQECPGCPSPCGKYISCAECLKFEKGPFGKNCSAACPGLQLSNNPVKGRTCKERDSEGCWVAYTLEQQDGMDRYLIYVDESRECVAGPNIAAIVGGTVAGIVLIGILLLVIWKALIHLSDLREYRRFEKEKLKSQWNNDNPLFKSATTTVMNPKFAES

| Structure (SMILES) | IC50 [nM] |
| --- | --- |
| C[C@@]1(Cc2ccc(C#N)cc2)C(=O)N(c2cc(Cl)cc(Cl)c2)c2ncc(C(=O)NC3(C(=O)NC4(c5cccc(C(=O)N6CCCCC6)n5)CC4)CC3)n21 [compound 16] | 12 |
| C[C@@]1(Cc2ccc(C#N)cc2)C(=O)N(c2cc(Cl)cc(Cl)c2)c2ncc(C(=O)NC3(C(=O)NC4(c5cccc(C(=O)N6CCCC(C(N)=O)C6)n5)CC4)CC3)n21 (stereo partly shown) [compound 23] | 2.6 |
| CC(C)(O)CNC(=O)c1ccnc(C2(NC(=O)C3(NC(=O)c4cnc5n4[C@](C)(Cc4ccc(C#N)cc4)C(=O)N5c4cc(Cl)cc(Cl)c4)CC3)CC2)c1 [compound 69] | 0.47 |
| C[C@@]1(Cc2ccc(C#N)cc2)C(=O)N(c2cc(Cl)cc(Cl)c2)c2ncc(C(=O)NC3(C(=O)NC4(c5cc(C(=O)NCc6ccccc6)ccn5)CC4)CC3)n21 [compound 24] | 4.1 |
| C[C@@]1(Cc2ccc(C#N)cc2)C(=O)N(c2cc(Cl)cc(Cl)c2)c2ncc(C(=O)NC3(C(=O)NC4(c5cccc(C(=O)N6CCC[C@@H]6C(N)=O)n5)CC4)CC3)n21 [compound 67] | 2.6 |
| CC(NC(=O)c1cccc(C2(NC(=O)C3(NC(=O)c4cnc5n4[C@](C)(Cc4ccc(C#N)cc4)C(=O)N5c4cc(Cl)cc(Cl)c4)CC3)CC2)n1)c1ccccn1 (stereo partly shown) [compound 12] | 8.5 |
| C[C@@]1(Cc2ccc(C#N)cc2)C(=O)N(c2cc(Cl)cc(Cl)c2)c2ncc(C(=O)NC3(C(=O)NC4(c5cccc(C(=O)NCc6ccccc6)n5)CC4)CC3)n21 [compound 25] | 32 |
| CCN(CC)C(=O)c1ccnc(C2(NC(=O)C3(NC(=O)c4cnc5n4[C@](C)(Cc4ccc(C#N)cc4)C(=O)N5c4cc(Cl)cc(Cl)c4)CC3)CC2)c1 [compound 138] | 0.67 |
| C[C@@]1(Cc2ccc(C#N)cc2)C(=O)N(c2cc(Cl)cc(Cl)c2)c2ncc(C(=O)NC3(C(=O)NC4(c5cccc(C(=O)N6CC[C@H](O)C6)n5)CC4)CC3)n21 [compound 143] | 0.53 |
| CN(C)CCNC(=O)c1cccc(C2(NC(=O)C3(NC(=O)c4cnc5n4[C@](C)(Cc4ccc(C#N)cc4)C(=O)N5c4cc(Cl)cc(Cl)c4)CC3)CC2)n1 [compound 63] | 1.7 |
| C[C@@]1(Cc2ccc(C#N)cc2)C(=O)N(c2cc(Cl)cc(Cl)c2)c2ncc(C(=O)NC3(C(=O)NC4(c5cc(C(=O)N6CCN(S(C)(=O)=O)CC6)ccn5)CC4)CC3)n21 [compound 89] | 1.4 |
| C[C@@]1(Cc2ccc(C#N)cc2)C(=O)N(c2cc(Cl)cc(Cl)c2)c2ncc(C(=O)NC3(C(=O)NC4(c5cc(C(=O)N6CCCC6)ccn5)CC4)CC3)n21 [compound 135] | 0.79 |
| C[C@@]1(Cc2ccc(C#N)cc2)C(=O)N(c2cc(Cl)cc(Cl)c2)c2ncc(C(=O)NC3(C(=O)NC4(c5cc(C(=O)N6CCCCC6CO)ccn5)CC4)CC3)n21 (stereo partly shown) [compound 44] | 0.88 |
| C[C@@]1(Cc2ccc(C#N)cc2)C(=O)N(c2cc(Cl)cc(Cl)c2)c2ncc(C(=O)NC3(C(=O)NC4(c5cccc(C(=O)NCc6ccncc6)n5)CC4)CC3)n21 [compound 26] | 5.2 |
| CC(C)(NC(=O)c1ccnc(C2(NC(=O)C3(NC(=O)c4cnc5n4[C@](C)(Cc4ccc(C#N)cc4)C(=O)N5c4cc(Cl)cc(Cl)c4)CC3)CC2)c1)c1ccccc1 [compound 108] | 3 |
| C[C@@]1(Cc2ccc(C#N)cc2)C(=O)N(c2cc(Cl)cc(Cl)c2)c2ncc(C(=O)NC3(C(=O)NC4(c5cc(C(=O)N6CCNCC6)ccn5)CC4)CC3)n21 [compound 97] | 1 |
| C[C@H](NC(=O)c1ccnc(C2(NC(=O)C3(NC(=O)c4cnc5n4[C@](C)(Cc4ccc(C#N)cc4)C(=O)N5c4cc(Cl)cc(Cl)c4)CC3)CC2)c1)c1ccccc1 [compound 10] | 6.2 |

The remaining lines, values ahead:

| IC50 [nM] | Structure (SMILES) |
| --- | --- |
| 1.3 | CC(=O)N1CCN(C(=O)c2ccc(C3(NC(=O)C4(NC(=O)c5cnc6n5[C@](C)(Cc5ccc(C#N)cc5)C(=O)N6c5cc(Cl)cc(Cl)c5)CC4)CC3)nc2)CC1 [compound 171] |
| 0.52 | C[C@H](O)CNC(=O)c1ccc(C2(NC(=O)C3(NC(=O)c4cnc5n4[C@](C)(Cc4ccc(C#N)cc4)C(=O)N5c4cc(Cl)cc(Cl)c4)CC3)CC2)nc1 [compound 99] |
| 0.59 | C[C@@]1(Cc2ccc(C#N)cc2)C(=O)N(c2cc(Cl)cc(Cl)c2)c2ncc(C(=O)NC3(C(=O)NC4(c5ccc(C(=O)N6CC[C@@H](O)C6)cn5)CC4)CC3)n21 [compound 5] |
| 0.82 | CN(C)CCNC(=O)c1ccc(C2(NC(=O)C3(NC(=O)c4cnc5n4[C@](C)(Cc4ccc(C#N)cc4)C(=O)N5c4cc(Cl)cc(Cl)c4)CC3)CC2)nc1 [compound 106] |
| 0.67 | CNC(=O)c1ccnc(C2(NC(=O)C3(NC(=O)c4cnc5n4[C@](C)(Cc4ccc(C#N)cc4)C(=O)N5c4cc(Cl)cc(Cl)c4)CC3)CC2)c1 [compound 31] |
| 1.5 | CNC(=O)c1ccc(C2(NC(=O)C3(NC(=O)c4cnc5n4[C@](C)(Cc4ccc(C#N)cc4)C(=O)N5c4cc(Cl)cc(Cl)c4)CC3)CC2)nc1 [compound 140] |
| 0.65 | C[C@@]1(Cc2ccc(C#N)cc2)C(=O)N(c2cc(Cl)cc(Cl)c2)c2ncc(C(=O)NC3(C(=O)NC4(c5ccc(C(=O)N6CCC[C@@H]6C(N)=O)cn5)CC4)CC3)n21 [compound 163] |
| 0.65 | CC(C)(CO)NC(=O)c1ccnc(C2(NC(=O)C3(NC(=O)c4cnc5n4[C@](C)(Cc4ccc(C#N)cc4)C(=O)N5c4cc(Cl)cc(Cl)c4)CC3)CC2)c1 [compound 105] |
| 0.47 | C[C@@H](O)CNC(=O)c1ccc(C2(NC(=O)C3(NC(=O)c4cnc5n4[C@](C)(Cc4ccc(C#N)cc4)C(=O)N5c4cc(Cl)cc(Cl)c4)CC3)CC2)nc1 [compound 128] |
| 0.37 | CC(O)CNC(=O)c1ccc(C2(NC(=O)C3(NC(=O)c4cnc5n4[C@](C)(Cc4ccc(C#N)cc4)C(=O)N5c4cc(Cl)cc(Cl)c4)CC3)CC2)nc1 (stereo partly shown) [compound 73] |
| 0.14 | COCCNC(=O)c1ccc(C2(NC(=O)C3(NC(=O)c4cnc5n4[C@](C)(Cc4ccc(C#N)cc4)C(=O)N5c4cc(Cl)cc(Cl)c4)CC3)CC2)nc1 [compound 41] |
| 0.43 | C[C@@]1(Cc2ccc(C#N)cc2)C(=O)N(c2cc(Cl)cc(Cl)c2)c2ncc(C(=O)NC3(C(=O)NC4(c5ccc(C(=O)N6CCCC(CO)C6)cn5)CC4)CC3)n21 (stereo partly shown) [compound 29] |
| 1.5 | C[C@@]1(Cc2ccc(C#N)cc2)C(=O)N(c2cc(Cl)cc(Cl)c2)c2ncc(C(=O)NC3(C(=O)NC4(c5ccc(C(=O)N6CCN(S(C)(=O)=O)CC6)cn5)CC4)CC3)n21 [compound 153] |
| 1 | CN(CCO)C(=O)c1ccc(C2(NC(=O)C3(NC(=O)c4cnc5n4[C@](C)(Cc4ccc(C#N)cc4)C(=O)N5c4cc(Cl)cc(Cl)c4)CC3)CC2)nc1 [compound 154] |
| 0.62 | CC(C)(NC(=O)c1ccc(C2(NC(=O)C3(NC(=O)c4cnc5n4[C@](C)(Cc4ccc(C#N)cc4)C(=O)N5c4cc(Cl)cc(Cl)c4)CC3)CC2)nc1)c1ccccc1 [compound 152] |
| 0.42 | C[C@@]1(Cc2ccc(C#N)cc2)C(=O)N(c2cc(Cl)cc(Cl)c2)c2ncc(C(=O)NC3(C(=O)NC4(c5ccc(C(=O)N6CCCC(C(N)=O)C6)cn5)CC4)CC3)n21 (stereo partly shown) [compound 101] |
| 1.4 | C[C@@]1(Cc2ccc(C#N)cc2)C(=O)N(c2cc(Cl)cc(Cl)c2)c2ncc(C(=O)NC3(C(=O)NC4(c5ccc(C(N)=O)cn5)CC4)CC3)n21 [compound 148] |
| 1.3 | C[C@@]1(Cc2ccc(C#N)cc2)C(=O)N(c2cc(Cl)cc(Cl)c2)c2ncc(C(=O)NC3(C(=O)NC4(c5cccc(C(=O)NCCN)n5)CC4)CC3)n21 [compound 40] |
| 1.5 | C[C@@]1(Cc2ccc(OC(F)(F)F)cc2)C(=O)N(c2cc(Cl)cc(Cl)c2)c2ncc(C(=O)NC3(C(=O)NC4(c5ccc(C(N)=O)cn5)CC4)CC3)n21 [compound 94] |
| 1.4 | C[C@@]1(Cc2ccc(C#N)cc2)C(=O)N(c2cc(Cl)cc(Cl)c2)c2ncc(C(=O)NC3(C(=O)NC4(c5ccc(C(=O)NCC(O)CO)cn5)CC4)CC3)n21 (stereo partly shown) [compound 133] |
